Source: patent US20050233413A1, “Neuroprotective polypeptides and methods of use” (priority 2002, published 2005)
Where no end group is shown, it is not given here.

Key:
Type in all cases: cell-based
[1] = tested on: F11 cells transfected with V642I-APP cDNA; assay: F11 cell death by V642I-APP transfection (Trypan blue exclusion); conditions: for cytotoxicity by V642I-APP in the presence of peptide (% dead cells of total cells): each peptide 10 μM, V642I-APP alone 53.7±1.2%, without transfection 9.0±1.4
Excerpt: (§1) In one assay, transfection with V642I-APP causes cell death in F11 neuronal hybrid cells. In the other, treatment with Aβ peptides causes cell death in primary cultured cortical neurons.
(§2) F11 cells, the hybrid of a rat embryonic-day-13 primary cultured primary neuron and a mouse neuroblastoma cell, are one of the best models for primary cultured neurons as they carry representative characteristics of primary neurons, such as generation of action potentials without differentiation by NGF [22]. They have been used in various studies of is neuronal functions. Using these cells, the underlying mechanisms for cytotoxicity by V642I-APP have well been analyzed. Cytotoxicity by V642 mutants of APP has also been confirmed in multiple different systems. F11 cells were grown in Ham's F-12 (GibcoBRL, Gaithersburg, Md.) plus 18% fetal bovine serum (FBS; Hyclone, Logan, Utah) and antibiotics, as described previously. F11 cells (7×10^4 cell/well in a 6-well plate cultured in Ham's F-12 plus 18% FBS for 12-16 hr) were transfected with plasmids encoding FAD genes by lipofection [FAD cDNA 2 μg, LipofectAMINE 4 μl, PLUS reagent 8 μl (GibcoBRL)] in the absence of serum for 3 hr, and were incubated with Ham's F-12 plus 18% FBS for 2 hr. Then, culture media were changed to Ham's F-12 plus 10% FBS with or without HN peptides, and cells were cultured for an additional 67 hr. Seventy-two hr after transfection, cell mortality was measured by Trypan blue exclusion assay, performed as follows. Cells were suspended by pipetting gently, and 50 μl of 0.4% (finally 0.08%) Trypan blue solution (Sigma, St Louis, Mo.) was mixed with 200 μl of the cell suspension at room temperature. Stained cells were counted within 3 min after the mixture with Trypan blue solution.

[2] = tested on: primary cultured neurons treated with 25 μM Aβ1-43
Protocol: as §1
(§3) The primary culture of mouse cortical neurons was performed in poly-L-lysine-coated 24-well plates or 96-well plates (Sumitomo Bakelite, Akita, Japan), in the absence of serum and the presence of N2 supplement, as described previously. The purity of neurons by this method was >98%. Prepared neurons (for neurons seeded in 96-well plates: 2.5×10^4 or 5×10^4 cells/well, 100 μl culture medium/well; for neurons seeded in 24-well plates: 1.25×10^5 cells/well, 250 μl culture medium/well) were preincubated with or without 10 μM (in case for the experiment with 10 μM HN) synthetic HN for 16 hr, and treated with 25 μM Aβ in the presence or absence of 10 μM HN for 72 hr, respectively. As primary neurons were vulnerable to transient dryness during medium exchange, we treated neurons with 25 μM Aβ as follows. First, a half volume (50 μl for neurons in 96-well plates; 125 μl for neurons in 24-well plates) of old medium was discarded. Then, the same volume (50 μl for neurons in 96-well plates; 125 μl for neurons in 24-well plates) of prewarned fresh medium containing 10 μM HN and 50 μM Aβ (Aβ was directly resolved) was added to the culture. The Aβ peptides used at 25 μM to induce neurotoxicity formed aggregation in the medium during the cell culture at 37° C. for 72 hr. as described. The WST-8 cell viability assay was performed, using Cell Counting Kit-8 (Wako Pure Chemical Industries, Osaka, Japan), as described previously.
(§4) Calcein assay was performed with Calcein-AM {3′,6′-di-(O-acetyl)-2′,7′-bis [N,N-bis(carboxymethyl)aminomethyl] fluorescein, tetraacetoxymethyl ester; Dojindo}, as described previously. These assays were simultaneously performed in the experiments with neurons seeded in 96-well plates, as follows. Seventy-two hours after Aβ treatment, cells were added with the mixture of 10 μl WST-8 solution and 1 μl of 600 μM Calcein-AM. After 2 hr incubation in a CO2 incubator at 37° C., WST-8 absorbance was measured as OD450. After exchanging the medium to PBS to lower the background, Calcein-specific fluorescence (ex=485 nm, em=535 nm) was observed by fluorescence microscopy or measured by a spectrofluorometer (Wallac1420 ARVOsx Multi Label Counter). Most cell viability data using Calcein assay and WST-8 assay were obtained from neurons seeded at 5×10^4 cells/well in 96-well plates (high-density neurons) and confirmed by both assays with the cells seeded at 2.5×10^4 cells/well (low-density neurons).
Some experiments for Calcein assay were performed with neurons seeded in 24-well plates. […] In most experiments using primary neurons, four independent experiments were performed and the means? S. D. of the results were discussed.

[3] = tested on: Aβ and V642I-APP; conditions: for Full protection (minimal concentration that exerted full cytoprotection): Table 5, marked **
Excerpt: as §2, §3
as §4, with “Most cell viability data using Calcein assay and WST-8 assay were obtained from neurons seeded at 5×10^4 cells/well in 96-well plates (high-density neurons) and confirmed by both assays with the cells seeded at 2.5×10^4 cells/well (low-density neurons).” left out

[4] = tested on: Aβ and four FAD genes (V642I-APP, NL-APP, M146L-PS1, and N141I-PS2); conditions: Table 5, marked *
Excerpt: as §2, §3
as §4, with “Most cell viability data using Calcein assay and WST-8 assay were obtained from neurons seeded at 5×10^4 cells/well in 96-well plates (high-density neurons) and confirmed by both assays with the cells seeded at 2.5×10^4 cells/well (low-density neurons).” left out

## (S14P)HN: HN derivative with Pro substitution at Ser14
[1]
  cytotoxicity by V642I-APP in the presence of peptide (% dead cells of total cells): 12.5±1.0%

## CC[C@H](C)[C@H](NC(=O)[C@H](CCC(=O)O)NC(=O)[C@H](CO)NC(=O)[C@@H](NC(=O)[C@H](CC(C)C)NC(=O)[C@H](CC(C)C)NC(=O)[C@H](CC(C)C)NC(=O)[C@H](CC(C)C)NC(=O)[C@H](CS)NC(=O)[C@H](CO)NC(=O)[C@H](Cc1ccccc1)NC(=O)CNC(=O)[C@H](CCCNC(=N)N)NC(=O)[C@@H]1CCCN1C(=O)[C@H](C)NC(=O)[C@@H](N)CCSC)[C@@H](C)O)C(=O)N[C@@H](CC(=O)O)C(=O)N[C@@H](CC(C)C)C(=O)N1CCC[C@H]1C(=O)N[C@H](C(=O)N[C@@H](CCCCN)C(=O)N[C@@H](CCCNC(=N)N)C(=O)N[C@@H](CCCNC(=N)N)C(=O)N[C@@H](C)C(=O)O)C(C)C [HN, reference compound]
[1]
  cytotoxicity by V642I-APP in the presence of peptide (% dead cells of total cells): 11.0±0.1%

## MAPRGFSCLLLLTEEIDLPVKRRA [(S14E)HN]
[1]
  cytotoxicity by V642I-APP in the presence of peptide (% dead cells of total cells): 45.0±1.9%

## PRGFACLLLLTGEIDLP [S7A HNG17, PRGFACLLLLTGEIDLP]
[2]
  IC50: ~1 nM
[2]; 25 μM Aβ1-43
  concentration of full neuroprotection against Aβ1-43: about 10 nM
[3]
  Full protection (minimal concentration that exerted full cytoprotection): ˜10 nM

## EFLIVIKSMAPRGFSCLLLLTGEIDLPVKKKK [EF-HNG-KKK]
[1]
  IC50: ~0.1 nM
[1]; F11 cells
  concentration of full cytoprotection / complete suppression against V642I-APP: 10 nM
[2]
  IC50: ~1 nM
[2]; 25 μM Aβ1-43
  concentration of full neuroprotection against Aβ1-43: 10 to 100 nM
[2]; 25 μM Aβ1-43, EF-HN and EF-HNG at 10 μM, WST-8 and Calcein assays
  suppression of Aβ neurotoxicity in the presence of 100 μM EFLIVIKS: could not suppress Aβ neurotoxicity at all
[3]
  Full protection (minimal concentration that exerted full cytoprotection): ˜10 nM
[3]; times less potent than EF-HNG
  potency relative to EF-HNG: ~10 times

## MAPRGFSCLLLLTTEIDLPVKRRA [(S14T)HN]
[1]
  cytotoxicity by V642I-APP in the presence of peptide (% dead cells of total cells): 54.0±2.3%

## MAPRGFSALLLLTSEIDLPVKRRA [HNA, reference compound]
[1]; F11 cells
  cytoprotective action against V642I-APP (in words): completely inactive
[2]; 25 μM Aβ1-43, primary neurons
  neuroprotective action against Aβ1-43 (in words): completely inactive
[4]
  Full protection: NE* (the corresponding peptide had no cytoprotective effect at 10 μM)
[4]; read-out: IC50
  IC50: > 10000 nM
